This is an account of results in US9417257B2, “System and method for collecting, storing, processing, transmitting and presenting very low amplitude signals” (Nativis, Inc., priority 2004, dated 2016).

Molecules are shown by their SMILES. Where a SMILES comes first, the peptide text is derived from it. [ ]: non-standard residue; d: D form. Nle = CCCC[C@H](N)C(=O)O

One test concerns the target T1, 20S proteasome (Homo sapiens, UniProt P28074).
T1 construct: purchased EMD Biosciences 539158
Kind of test: 20S proteasome assay, cleavage of Suc-Leu-Leu-Val-Tyr-AMC (fluorescence). In kind it is biochemical. The text has this:
The 20S proteasome enzyme is activated with a mild detergent (SDS). The cleavage of the substrate Suc-Leu-Leu-Val-Tyr-AMC by the activated enzyme liberates the fluorescent AMC molecules that can be monitored by exciting AMC at 380 nm and detecting the fluorescence at 460 nm. Proteosome activity is inhibited by phepropeptin D.
In a first study, the ability of phepropeptin D and a MIDS signal of phepropeptin D to inhibit proteosome activity, as measured by the appearance of conversion of the substrate Suc-Leu-Leu-Val-Tyr-AMC to yield a fluorescent signal were measured, following substantially the same methodology described above and in the examples.
The 20S Proteasome assay kit (EMD Biosciences Cat #539158) was adapted for use in a cuvette format with a final volume of 200 μl. Nine samples were set-up using the following procedure:
Reaction buffer (20×) was diluted, 100 μl with 880 μl of HPLC grade water and 20 μl of 100× activation buffer to a final volume of 1 ml.
100 μl of the diluted 2× reaction buffer was added to each of the no enzyme control tubes.
The 20S proteasome enzyme was added to the remaining solution, 3.2 μl to 800 μl of 2× reaction buffer and 100 μl added to each of 7 remaining tubes.
To each tube 100 μl of water or water and inhibitor were added.
In a separate tube 4 μl of the substrate was diluted with 96 μl of HPLC grade water and 10 μl/tube of the diluted substrate was added to each of the reaction tubes to obtain a final volume of 200 μl.
Samples were all mixed by repeated pipetting and the reactions incubated at 37 C for 2 hrs.
Fluorescence was quantiated and recorded using a fluorometer (Turner Designs, Sunnyvale, Calif.—Model TD-700).
In a follow-up study, samples were allowed to incubate at room temperature overnight to determine if the substrate would continue to be converted to the fluorescent product. […]

The subject of test [1] is araC-PBAD promoter dependent expression of GFPuv. Conditions: cited from earlier work.
Test [2] shares this test system. Kind of test: Induction of araC-PBAD GFPuv reporter in pBAD-GFPuv transformed JM109 bacteria, whole cell fluorescence. Type of test: cell-based, E coli. The following applies: MIDS = signal playback. An excerpt: The reporter system for sugar sensing was obtained from a commercial supplier. In this system, bacteria are transformed with a plasmid that consists of the gene for AraC, which acts as an activator of the ara operon, and the gene for a variant green florescent protein, under the control of the PBAD promoter. L-arabinose specifically binds to araC and rapidly turns on transcription in a time dependent fashion reaching a maximum expression level within 3 hr as monitored by intact whole cell fluorescence of the expressed GFP. GFPuv expression is linear with dose over two logs of concentration of L-arabinose (1-500 uM).
The inherent (MIDS) emission signals of L and D-arabinose are obtained as detailed above, employing a 0.1 mM solution of L(+) Ara or D(+) Ara for signal recording, and the autocorrelation/FFT method for identifying optimized time-domain signals.
Transduction experiments were performed with two sets of coils. In the first system, a pair of coils consisting of 30 gauge aluminum wire was wound around a 3″ tall section of PVC core with 2⅝″ o.d., wound to 35× the number of windings of starting coils. These were place inside aluminum Faraday boxes 5½×4″×8¾″ (W×H×D) to isolate samples for crossover RF signals. Both boxes were placed upon the orbital shaker platform to aerate transducing cultures.
In the second set of three 4″ tall stock 4000-ft spools of 28G insulated copper wired with 1″ i.d. plastic cores were directly used as transduction coils (“Mega coils”) and two coils were driven with the MIDS signals, while the third control coil was driven by a random white noise generator. In this case, all three coils were isolated in Faraday boxes, and mounted separated by 2 ft on a 6-ft plank that was fitted to the orbital shaker. This ensured that all three samples were agitated at the same speed with one shaker. Thermistor temperature probes were also place into the core of each coil proximal to the sample to provide real-time reading of temperature. Both sets of MIDS signal coils were driven at the highest input voltage setting until their temperature equilibrated near 94-97° F. from resistive heating of the wound wire. Samples were centered in the core of the coil to experience the maximum and most uniform area of RF flux. (a limitation of the current set-up was the linkage of heating with driving voltages which control RF flux).
In a typical experiment, 1-3 drops of overnight cultures of pBAD-GFPuv transformed JM109 grown in Luria broth containing 100-500 ug/ml of sodium ampicillin (LB/amp) were used to seed 50 ml fresh LB/amp. This was well mixed and 10 ml transferred to 25-ml Erlenmeyer flasks, and 0.1 ml of 100× stocks of reference chemical inducers (D or L arabinose) were added to final concentrations desired. These seeded cultures were placed into either the transduction coils, or left on the shaker platform as controls. (Another limitation of the current set up is the availability of only one shaker table, forcing a choice between incubation at controlled above ambient temperature to match the coils but without agitation, or agitation simply at ambient temperature. Also the matching of the coil temperatures varies about 2-3° F. and cannot be precisely controlled or determined). In most cases the transductions were conducted as overnight incubations.
After transduction was stopped, 1.2 ml of bacterial cell culture suspension were transferred to 1.7 ml microcentrifuge tubes and centrifuge 1-2 mins at 12,000 rpm (10,000×rcg). Supernatant broth was removed, discarded and the bacterial pellets re-suspended in 1 ml of ice-cold PBS. Washed suspensions were centrifuged again, PBS wash discarded, pellets re-suspended in fresh PBS, transferred to cuvettes to measure OD600 nm, then volumes were adjusted to match cell density among samples.
For each of the studies reported here, % Relative=[(Fluor. of L(+)ara MIDS)−(Fluor. of D(−)ara MIDS)]
Induction (Fluor. of D(−) ara MIDS).

The test system of the next test is pea sprouts. The test is described as follows: Sugar pea sprout stem length, inhibition by herbicide. In kind it is in vivo. The following applies: 72 hour, 37° C., 100% humidity; FIG. 31. The protocol: The optimized inherent (MIDS) emission signals of glyphosphate were obtained as described in Sections II and III above, using system equipment and protocols as detailed in Examples 1 and 2 below. In one experiment, an optimized glyphosphate MIDS signal was applied to pea sprouts supported on a moist medium, with signal application over a 72 hour period at 37° C., 100% humidity. Various controls included (1) no signal, (2), the chemical Roundup®, and (3) a white noise signal. Stem length was measured within a hour after exposure to the stimulus, and 5-50 sprouts were contained in each group.

Test [3] concerns MDA-MB-435 human breast tumor. The test is described as follows: MDA-MB-435 human breast tumor mouse xenograft. Type of test: in vivo, athymic nude mice. The following applies: day 36; outliers removed; taxol 15 mg/kg i.p. twice a wk; MIDS continuous playback. On the technique in general: Xenograft models place foreign cells or tissue in a host animal.
Procedure: Method: MIDS measurement was made in glass sample holders (Kimble autoinjector vials) on (1) neat solution of the preformulated taxol clinical vial, using a 1 ml tuberculin syringe, and 22G needle, to withdraw 0.7 ml from multidose vial (preserve sterility and integrity of solution, so don't syringe back in), then (2) this 0.7 ml taxol formulation will be used to dissolve additional 1 mg vials of taxol, to increase the amount of taxol relative to Cremophor®. The study was designed to evaluate the efficacy of a transduction technology to inhibit tumor growth in an in vivo human tumor mouse xenograft model, and to compare its effect to a standard chemotherapeutic treatment-taxol. 5 million MDA-MB-435 cells, in suspension, were subcutaneously injected into the flanks of athymic nude mice. Treatment began the same day of cell implant (Day 1). Animals were assigned to one of 4 groups. Each animal was monitored for tumor growth twice per week for the duration of the study. One group was treated with Taxol, Two groups were treated with transduction and one group was treated with the taxol vehicle to act as a control.
The mice were athymic nude mice nu/nu with a BALB/c background. Implanted with 5 million of breast cancer tumor line MDA-MB-435(NCI standard originally from the NCI) from American Culture Type Collection, ATCC (Rockville, Md.). […]
The mark [4] stands for this setting: Experiment 1, OD-matched cells, L(+) Ara 0.2 mM, D(−) Ara 1 mM.
[5] abbreviates: Experiment 2, L(+) ara 0.25 mM, D(−) ara 1 mM.

Turning to `CCCC[C@@H](C=O)NC(=O)[C@H](CC(C)C)NC(=O)[C@H](CC(C)C)NC(C)=O` [ALLN] (Ac-Leu-Leu-[Nle]-aldehyde), the “Fluorescence relative to positive control sample #2 set to 700” value at 20S proteasome (37 C, 2 hrs, MIDS 60 mG AC field) is listed as 25.83. The “% Normalized Fluorescence” value at 20S proteasome (1 hr 30 min) is given as 4.975%; at 20S proteasome (20 hrs post, room temperature overnight, removed from the field), 2.646%.

As to `O=C[C@@H](O)[C@H](O)[C@H](O)CO` [D(−) Ara, D(−)-arabinose], the “binding of araC and activation of genes downstream of the PBAD promoter (in words)” value in test [1] (even at 1000-fold higher concentration than L-arabinose) is recorded as “does not bind araC, nor activate expression of genes downstream of the PBAD promoter”. For the same molecule, in test [2] (setting [4]), the “Fluorescence Average rfu” value came to 297.7 rfu, the “Fluorescence rfu1” value is 297.6 rfu, the “Fluorescence rfu2” value stood at 297.8 rfu and the “Fluorescence rfu3” value is 297.7 rfu. Also, in test [2] (setting [5]), the “Fluorescence Average rfu” value is 226.5 rfu, the “Fluorescence rfu1” value is given as 226.7 rfu, the “Fluorescence rfu2” value is 226.7 rfu and the “Fluorescence rfu3” value is recorded as 226.1 rfu.

`O=C[C@H](O)[C@@H](O)[C@@H](O)CO` [L(+) Ara, L(+)-arabinose]: in test [1], the “concentration range over which GFPuv expression is linear with dose” value is 1 to 500 µM and the potency was 100 µM. For the same molecule, the “time to maximum expression level of GFP” value in test [1] (whole cell fluorescence) is no more than 3 h. In test [2] (setting [4]), the “Fluorescence Average rfu” value was 833.5 rfu, the “Fluorescence rfu1” value came to 835.0 rfu, the “Fluorescence rfu2” value was found to be 832.7 rfu and the “Fluorescence rfu3” value is listed as 832.7 rfu. In addition, in test [2] (setting [5]), the “Fluorescence Average rfu” value came out at 939.7 rfu, the “Fluorescence rfu1” value came out at 940.0 rfu, the “Fluorescence rfu2” value was 939.4 rfu and the “Fluorescence rfu3” value stood at 939.7 rfu.

Consider `O=C(O)CNCP(=O)(O)O` [glyphosphate, N-phosphonomethylglycine], for which the “stem growth (in words)” value with pea sprouts is “effective in substabtially inhibited stem growth”.

`CC(=O)O[C@H]1C(=O)[C@@]2(C)[C@H]([C@H](OC(=O)c3ccccc3)[C@]3(O)C[C@H](OC(=O)[C@H](O)[C@@H](NC(=O)c4ccccc4)c4ccccc4)C(C)=C1C3(C)C)[C@]1(OC(C)=O)CO[C@@H]1C[C@@H]2O` [taxol]: the tumor growth inhibition in test [3] was 43%.
